The target of data set [1] is human melatonin 2 receptors (human MT2 receptors) (Homo sapiens (Human), UniProt P49286). The data set can be described thus: Melatonin receptor binding assay, 2-[125I] Iodomelatonin, CHO-hMT2 cell membrane fraction. The conditions noted are these: binding inhibition of 2-[125I] Iodomelatonin, CHO-hMT2 membranes, 25° C., 2.5 hr. The protocol:
(§1) Melatonin Receptor Binding Assay
(2) Preparation of CHO-hMT2 Cells Expressing Human Melatonin 2 Receptors
CHO-K1 cells (ATCC, #CCL-61) were plated at the concentration of 1.5×10^5 cells/cm^2 in a 6 well plate (ASAHI TECHNO GLASS), and cultured under the conditions of 37° C., 5% CO2 for 24 hr.
(§2) (3) Preparation of Cell Membrane Fraction of CHO Cell (CHO-hMelR7 and CHO-hMT2) Stably Expressing Human MT1 and MT2 Receptors
(§3) CHO-hMelR7 and CHO-hMT2 cells were plated using Cellfactory (Nunc, #170009) under the conditions of 1×10^8 cells/2000 mL/flask. The cells were grown to confluent, and recovered by the following method. As the medium for CHO-hMelR7 and CHO-hMT2, MEM α containing 10% FBS and penicillin/streptomycin was used. […] of geneticin was added to the medium for CHO-hMT2.
(§4) The medium was discarded, cells were washed twice with 200 mL of EDTA/PBS(−), 200 mL of EDTA/PBS(−) was further added, and the cells were stood still at room temperature for 20 min until they were released. […] The mixture was further centrifuged at 1,500 rpm for 10 min at 4° C., and the obtained pellets were suspended in 20 mL of ice-cooled homogenizing buffer [10 mM NaHCO3, 5 mM EDTA, Protease inhibitor Complete (Roche), pH 7.4]. The cell suspension was homogenized 3 times using a polytron homogenizer at 20,000 rpm for 30 sec. The obtained homogenate was centrifuged (2,000 rpm, 10 min, 4° C.) using a low speed cooling centrifuge. The supernatant was recovered in an ultracentrifugation tube and ultracentrifuged (40,000 rpm, 60 min, 4° C.) using an ultracentrifuge (Beckman, L-90K). To the obtained pellets was added a suspending buffer [50 mM Tris-HCl, 1 mM EDTA, Protease inhibitor Complete (Roche), pH 7.4], and the pellets were suspended by pipetting. The protein concentration of this suspension was measured, diluted to 2 mg/mL to give cell membrane fractions of CHO-hMelR7 and CHO-hMT2 cells. […] Protein was quantified using BCA protein assay kit (Pierce) with BSA as the standard.
(§5) (4) Preparation of Membrane Fraction Suspension
(§6) Immediately before use, the membrane fractions of CHO-hMelR7 and CHO-hMT2 cells of the above-mentioned (3) were diluted 20-fold with assay buffer (50 mM Tris-HCl, pH 7.7).
(§7) Iodomelatonin (#NEX236, PerkinElmer) was diluted with the assay buffer to 400 pM for MT1 and 1 nM for MT2.
(§8) Then, a test compound (compound solution diluted with DMSO to 200-fold of the final measurement concentration) was added by 2 μL. 2 μL of DMSO was added to each well of the total binding control section, and 100 μM cold Melatonin solution (Sigma, diluted with DMSO to 100 μM) was added to each well of the nonspecific binding control section by 2 μL. Then, the membrane fraction suspension (100 μL) was added. […] Iodomelatonin solution of the above-mentioned (5) was added to each well mentioned above by 20 μL, and a binding reaction was carried out at 25° C. for 2.5 hr in a micromixer (TAITEC, Bioshaker M.BR-024).
(§9) Using a cell harvester (PerkinElmer), the binding reaction mixture in each well of the 96-well plate was transferred to a treated (immersed in 50 mM Tris, pH 7.7 in advance) filter plate (UniFilter GF/C, PerkinElmer) and filtered. After filtration, the plate was washed 4 times with the assay buffer, and dried in a dryer (42° C.) for 2 hr or more. 25 μL of a liquid scintillator (MicroScint O, PerkinElmer) was added to each well of the filter plate after drying, and the luminescence of scintillator was measured by TopCount (PerkinElmer) for 1 min.
(§10) Specific binding is a value obtained by subtracting nonspecific binding from the total binding. The binding inhibitory activity of the test compound is shown by the ratio of the value obtained by subtracting the measurement value when the test compound was added from the total binding, to the specific binding.

The target of data set [2] is human melatonin 1 receptors (human MT1 receptors) (Homo sapiens (Human), UniProt P48039). The data set can be described thus: Melatonin receptor binding assay, 2-[125I] Iodomelatonin, CHO-hMelR7 cell membrane fraction. The conditions noted are these: binding inhibition of 2-[125I] Iodomelatonin, CHO-hMelR7 membranes, 25° C., 2.5 hr. The method, then: as §1
(1) Preparation of CHO-hMelR7 Cells Expressing Human Melatonin 1 Receptors
as §2, §3, §4, §5, §6, §7, §8, §9, §10

Chain of human melatonin 1 receptors (human MT1 receptors) (P48039 whole entry): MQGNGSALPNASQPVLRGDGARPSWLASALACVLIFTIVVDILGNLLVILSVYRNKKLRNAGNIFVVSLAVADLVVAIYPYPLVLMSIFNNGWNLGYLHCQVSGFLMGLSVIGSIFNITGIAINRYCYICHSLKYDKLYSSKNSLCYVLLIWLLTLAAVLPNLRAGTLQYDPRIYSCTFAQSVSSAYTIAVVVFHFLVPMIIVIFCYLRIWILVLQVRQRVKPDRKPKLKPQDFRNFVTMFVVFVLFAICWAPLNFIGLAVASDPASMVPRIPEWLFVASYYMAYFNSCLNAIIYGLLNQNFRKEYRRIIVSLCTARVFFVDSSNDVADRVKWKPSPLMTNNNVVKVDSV
Chain of human melatonin 2 receptors (human MT2 receptors) (P49286 whole entry): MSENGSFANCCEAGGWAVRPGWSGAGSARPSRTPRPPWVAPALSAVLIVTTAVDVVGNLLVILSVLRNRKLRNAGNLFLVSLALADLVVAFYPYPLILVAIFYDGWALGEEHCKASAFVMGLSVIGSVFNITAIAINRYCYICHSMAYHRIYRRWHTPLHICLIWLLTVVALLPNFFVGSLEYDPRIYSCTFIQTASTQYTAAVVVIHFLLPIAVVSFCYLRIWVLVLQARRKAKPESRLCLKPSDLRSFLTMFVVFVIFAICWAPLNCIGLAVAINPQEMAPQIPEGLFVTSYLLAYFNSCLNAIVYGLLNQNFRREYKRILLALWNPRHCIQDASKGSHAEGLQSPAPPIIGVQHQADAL

As usually defined, the melting point is the temperature, or range, at which the solid turns liquid. In turn, `CCC(=O)NCC=C1CCc2ccc3ncoc3c21` [Example 2, N-[2-(6,7-Dihydro-8H-indeno[5,4-d][1,3]oxazol-8-ylidene)ethyl]propionamide] had a melting point of 148 to 150 °C.
In general, IC50 refers to the point on the concentration scale where inhibition reaches its midpoint. Lower therefore signals greater potency. Compound `CC(=O)NCC=C1CCc2ccc3nc(C)oc3c21` [Example 3, N-[2-(2-Methyl-6,7-dihydro-8H-indeno[5,4-d][1,3]oxazol-8-ylidene)ethyl]acetamide] yielded a melting point of 188 to 190 °C. In data set [1], this compound gave an IC50 of 0.37 nM. The compound further yielded an IC50 in data set [2] of 0.33 nM.
The compound `CC(=O)NCCC1=CCc2ccc3nc(C)oc3c21` [Example 4, N-[2-(2-Methyl-6H-indeno[5,4-d][1,3]oxazol-8-yl)ethyl]acetamide] registered a melting point of 154 to 156 °C. The same compound had an IC50 in data set [1] of 0.24 nM. Further, the IC50 in data set [2] came out at 0.068 nM.
`CCC(=O)NCC=C1CCc2ccc3nc(C)oc3c21` [Example 5, N-[2-(2-Methyl-6,7-dihydro-8H-indeno[5,4-d][1,3]oxazol-8-ylidene)ethyl]propionamide] came in with a melting point of 214 to 216 °C. This compound registered an IC50 in data set [1] of 0.22 nM. Moreover, the IC50 in data set [2] is 0.25 nM.
The matching figures for `CC(=O)NCC=C1CCc2ccc3nc(CCCCc4ccccc4)oc3c21` [Example 6, N-{2-[2-(4-Phenylbutyl)-6,7-dihydro-8H-indeno[5,4-d][1,3]oxazol-8-ylidene]ethyl}acetamide]: 113 to 115 °C, 0.43 nM and 0.079 nM.
On to `CCC(=O)NCC=C1CCc2ccc3nc(CCCCc4ccccc4)oc3c21` [Example 7, N-{2-[2-(4-Phenylbutyl)-6,7-dihydro-8H-indeno[5,4-d][1,3]oxazol-8-ylidene]ethyl}propionamide], for which the melting point is 111 to 113 °C.
`CC(=O)NCC=C1CCc2ccc3nc(C)sc3c21` [Example 8, N-[2-(2-Methyl-6,7-dihydro-8H-indeno[5,4-d][1,3]thiazol-8-ylidene)ethyl]acetamide]: the melting point fell in the range of 184 to 186 °C. In data set [1], this compound had an IC50 of 0.22 nM. Also, the IC50 in data set [2] was 0.19 nM.
Consider `CC(=O)NCCC1CCc2ccc3ncoc3c21` (stereo not drawn) [Example 9, N-[2-(7,8-Dihydro-6H-indeno[5,4-d][1,3]oxazol-8-yl)ethyl]acetamide], for which the IC50 in data set [1] came to 0.31 nM; in data set [2], 0.88 nM.
For the compound `CCC(=O)NCCC1CCc2ccc3ncoc3c21` (stereo not drawn) [Example 10, N-[2-(7,8-Dihydro-6H-indeno[5,4-d][1,3]oxazol-8-yl)ethyl]propionamide], the melting point was in the range of 89 to 90 °C.
`CC(=O)NCCC1CCc2ccc3nc(C)oc3c21` (stereo not drawn) [Example 11, N-[2-(2-Methyl-7,8-dihydro-6H-indeno[5,4-d][1,3]oxazol-8-yl)ethyl]acetamide]: the values for the IC50 in data set [1] and in data set [2] were 0.31 nM and 0.15 nM, respectively.
With `CC(=O)NCC[C@H]1CCc2ccc3nc(C)oc3c21` [Example 13, (R)-N-[2-(2-Methyl-7,8-dihydro-6H-indeno[5,4-d][1,3]oxazol-8-yl)ethyl]acetamide], the results for the IC50 in data set [1] and in data set [2] were 9.6 nM and 15 nM, respectively.
For `CCC(=O)NCCC1CCc2ccc3nc(C)oc3c21` (stereo not drawn) [Example 14, N-[2-(2-Methyl-7,8-dihydro-6H-indeno[5,4-d][1,3]oxazol-8-yl)ethyl]propionamide], the IC50 in data set [1] is 0.28 nM; in data set [2], 0.13 nM.
On the same counts, the results for `CCC(=O)NCC[C@H]1CCc2ccc3nc(C)oc3c21` [Example 16, (R)-N-[2-(2-Methyl-7,8-dihydro-6H-indeno[5,4-d][1,3]oxazol-8-yl)ethyl]propionamide] are 6.2 nM and 11 nM.
Regarding `CC(=O)NCCC1CCc2ccc3nc(CCCCc4ccccc4)oc3c21` (stereo not drawn) [Example 17, N-{2-[2-(4-Phenylbutyl)-7,8-dihydro-6H-indeno[5,4-d][1,3]oxazol-8-yl]ethyl}acetamide], the IC50 in data set [1] worked out at 0.091 nM; in data set [2] it was 0.022 nM.
For the compound `CC(=O)NCC[C@H]1CCc2ccc3nc(C)sc3c21` [Example 21, (R)-N-[2-(2-Methyl-7,8-dihydro-6H-indeno[5,4-d][1,3]thiazol-8-yl)ethyl]acetamide], the results for the IC50 in data set [1] and in data set [2] were 8.5 nM and 19 nM, respectively.
For the compound `CCc1nc2ccc3c(c2o1)C(CCNC(C)=O)CC3` (stereo not drawn) [Example 22, N-[2-(2-Ethyl-7,8-dihydro-6H-indeno[5,4-d][1,3]oxazol-8-yl)ethyl]acetamide], the melting point was in the range of 76 to 78 °C. Moreover, the IC50 in data set [1] is 0.41 nM. In addition, the IC50 in data set [2] is 0.36 nM.
In turn, `CC(=O)NCCC1CCc2ccc3nc(CO)oc3c21` (stereo not drawn) [Example 23, N-{2-[2-(Hydroxymethyl)-7,8-dihydro-6H-indeno[5,4-d][1,3]oxazol-8-yl]ethyl}acetamide] displayed a melting point of 132 to 134 °C.
Turning to `CC(=O)NCCC1CCc2ccc3nc(C(F)(F)F)oc3c21` (stereo not drawn) [Example 25, N-{2-[2-(Trifluoromethyl)-7,8-dihydro-6H-indeno[5,4-d][1,3]oxazol-8-yl]ethyl}acetamide], the melting point lay within 114 to 116 °C.
Compound `CC(=O)CCc1nc2ccc3c(c2o1)C(CCNC(C)=O)CC3` (stereo not drawn) [Example 28, N-{2-[2-(3-Oxobutyl)-7,8-dihydro-6H-indeno[5,4-d][1,3]oxazol-8-yl]ethyl}acetamide] had a melting point of 111 to 112 °C.
Still for that read-out and setting: the result for `CC(=O)NCCC1CCc2ccc3nc(-c4ccccc4)oc3c21` (stereo not drawn) [Example 30, N-[2-(2-Phenyl-7,8-dihydro-6H-indeno[5,4-d][1,3]oxazol-8-yl)ethyl]acetamide] reads 124 to 126 °C; that for `CC(=O)NCCC1CCc2ccc3nc(CCc4ccccc4)oc3c21` (stereo not drawn) [Example 32, N-{2-[2-(2-Phenylethyl)-7,8-dihydro-6H-indeno[5,4-d][1,3]oxazol-8-yl]ethyl}acetamide], 85 to 87 °C.
Compound `CC(=O)NCCC1CCc2ccc3nc(CCCc4ccccc4)oc3c21` (stereo not drawn) [Example 33, N-{2-[2-(3-Phenylpropyl)-7,8-dihydro-6H-indeno[5,4-d][1,3]oxazol-8-yl]ethyl}acetamide] gave a melting point of 95 to 97 °C.
Still for that read-out and setting: with `CSc1nc2ccc3c(c2o1)C(CCNC(C)=O)CC3` (stereo not drawn) [Example 39, N-{2-[2-(Methylthio)-7,8-dihydro-6H-indeno[5,4-d][1,3]oxazol-8-yl]ethyl}acetamide] the figure was 115 to 117 °C.
Still for that read-out and setting: with `Cc1nc2ccc3c(c2o1)C(CCNC(=O)c1ccccc1)CC3` (stereo not drawn) [Example 44, N-[2-(2-Methyl-7,8-dihydro-6H-indeno[5,4-d][1,3]oxazol-8-yl)ethyl]benzamide] the figure was 73 to 76 °C.
Still for that read-out and setting: with `CCNC(=O)NCCC1CCc2ccc3nc(C)oc3c21` (stereo not drawn) [Example 46, 1-Ethyl-3-[2-(2-methyl-7,8-dihydro-6H-indeno[5,4-d][1,3]oxazol-8-yl)ethyl]urea] the figure was 136 to 138 °C.
Take `CC(=O)NCCC1=C(C(C)C)Cc2ccc3nc(C)oc3c21` [Example 49, N-[2-(7-Isopropyl-2-methyl-6H-indeno[5,4-d][1,3]oxazol-8-yl)ethyl]acetamide]: the melting point was 135 to 138 °C.

Values taken from patent US8552037B2, “Tricyclic compound and pharmaceutical use thereof” (Takeda Pharmaceutical Company Limited, priority 2006, dated 2013).
